Experimental data as given in paper PMC5623053 (Frontiers in Molecular Biosciences, 2017).
“Also recorded” adds a separate entry of the source. Bridges are numbered along the chain shown (N, C = ends).

B1: G7-18NATE (cyclo-(CH2CO-WFEGYDNTFPC)-amide) (peptide)
peptide: {CH2CO}-WFEGYDNTFPC-NH2
modifications: thioether N-11
notes: cyclic peptide developed via phage display against the Grb7-SH2 domain; Purity >95% by LC-MS; source: synthetic peptide (standard Fmoc-chemistry), bought: Purar Chemicals (Australia)

Assays:
SH2 domain of Grb10 = conditions: SPR; ref Gunzburg et al., 2012; cited from earlier work
Grb7-SH2 domain = system: Grb7-SH2 domain; set-up: method as in 3 sources, one per row (each row's own in cited_ref): ref Ambaye et al., 2011a; Watson et al., 2017 ||| ref Gunzburg et al., 2012 ||| ref Janes et al., 1997; Gunzburg et al., 2012; conditions: ref Janes et al., 1997; Gunzburg et al., 2012; cited from earlier work
Description: Grb7 is a signaling adaptor protein that has been specifically targeted through th ...

Grb2 / HER3 = system: Grb2 / HER3; set-up: method as in Pero et al., 2002; conditions: ref Pero et al., 2002; cited from earlier work
Grb2-SH2 S90R = molecular target: T1, Grb2-SH2 S90R (Homo sapiens, UniProt P62993, S90R); test: SPR binding of G7-18NATE to immobilized GST-Grb2-SH2 S90R mutant
T1 construct: Grb7-SH2 (residues 415-532) and Grb2-SH2 (residues 58-160) were incorporated into the pGex2T plasmid; made in house; host or cells: E. coli BL21(DE3)pLysS

SH2D2A = conditions: 79 SH2 domains, 100 μg peptide in PBST, duplicate spots; not quantitative
Grb2-SH2 WT = molecular target: T2, Grb2-SH2 WT (Homo sapiens, UniProt P62993); test: SPR binding of G7-18NATE to immobilized GST-Grb2-SH2 WT
T2 construct: Grb7-SH2 (residues 415-532) and Grb2-SH2 (residues 58-160) were incorporated into the pGex2T plasmid; made in house; host or cells: E. coli BL21(DE3)pLysS

SH2 domain of Grb14 = conditions: SPR; ref Gunzburg et al., 2012; cited from earlier work
[1] = system: other SH2 domains in the microarray with leucine present at this position; conditions: 79 SH2 domains, 100 μg peptide in PBST; SH2 domains other than Grb7 and SH2D2A with leucine at βD6
Grb10 = conditions: 79 SH2 domains, 100 μg peptide in PBST, duplicate spots; not quantitative
Protocol: (§1) The microarray was conducted by the Protein Array and Analysis Core at the MD Anderson Cancer Center (University of Texas, USA) using standard protocols. […] Each SH2 domain was spotted in duplicate.

Grb14 = conditions: 79 SH2 domains, 100 μg peptide in PBST, duplicate spots; not quantitative
Protocol: as §1

Grb2 = conditions: 79 SH2 domains, 100 μg peptide in PBST, duplicate spots; not quantitative
Protocol: as §1

[2] = molecular target: T3, Grb7-SH2 R462S, GST fusion (residues 415-532) (UniProt Q14451 415-532, R462S); test: SPR; Biacore T100, CM5 chip; GST-SH2 fusion captured by amine-coupled anti-GST antibody, GST alone on the reference cell; G7-18NATE injected 60 s at 30 μL/min in 150 mM NaPO4, 150 mM NaCl, 1 mM DTT, pH 7.4; equilibrium responses fitted by a single-site binding model; conditions: both partners purified
T3 construct: Made by site-directed mutagenesis of the wild-type construct; primers in Supplementary Material; also called R462S Grb7-SH2; R462S mutant

[3] = molecular target: T4, Grb7-SH2 wild-type, GST fusion (residues 415-532) (UniProt Q14451 415-532); test: as above; conditions: both partners purified
T4 construct: also called Grb7-SH2 WT; WT Grb7-SH2

[4] = molecular target: T5, Grb2-SH2 wild-type, GST fusion (residues 58-160) (UniProt P62993 58-160); test: as above; conditions: both partners purified
T5 construct: Grb2, SH2 domain, residues 58-160, in pGex2T; also called Grb2-SH2 WT; WT Grb2-SH2

[5] = molecular target: T3, Grb7-SH2 R462S, GST fusion (residues …); test: as above; conditions: both partners purified; remark: listed apart in the source
[6] = SPR, Biacore T100, single-site binding model, errors are standard error of the fits
[7] = in words, injection of G7-18NATE over the chip surface

T3 sequence (Q14451 415-532 R462S): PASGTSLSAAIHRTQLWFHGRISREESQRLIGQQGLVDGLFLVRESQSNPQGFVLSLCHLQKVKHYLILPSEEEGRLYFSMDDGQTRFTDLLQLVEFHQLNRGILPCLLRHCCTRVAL
T4 sequence (Q14451 415-532): as the sequence (Q14451 415-532 R462S) above, with S48R counted along it

Molecule | binding to Grb10 SH2 domain (SH2 domain of Grb10) | specificity for Grb7-SH2 over Grb2, Grb10 and Grb14 SH2 domains (Grb7-SH2 domain) | effect on Grb2/HER3 interaction (Grb2 / HER3) | Rmax (Grb2-SH2 S90R; [6]) [RU] | SPR binding response (Grb2-SH2 S90R; [7]) | microarray fluorescence / binding (SH2D2A) | Rmax (Grb2-SH2 WT; [6]) [RU] | SPR binding response (Grb2-SH2 WT; [7]) | binding to Grb14 SH2 domain (SH2 domain of Grb14) | microarray binding [1] | microarray fluorescence (Grb10) | microarray fluorescence (Grb14) | microarray fluorescence (Grb2) | Kd [2] [µM] | Kd [3] [µM] | Kd [4] [µM] | Kd [5] [µM]
C[C@@H](O)[C@@H]1NC(=O)[C@H](CC(N)=O)NC(=O)[C@H](CC(=O)O)NC(=O)[C@H](Cc2ccc(O)cc2)NC(=O)CNC(=O)[C@H](CCC(=O)O)NC(=O)[C@H](Cc2ccccc2)NC(=O)[C@H](Cc2c[nH]c3ccccc23)NC(=O)CSC[C@@H](C(N)=O)NC(=O)[C@@H]2CCCN2C(=O)[C@H](Cc2ccccc2)NC1=O [G7-18NATE] | minimal binding | specific for the Grb7-SH2 domain over the closely related SH2 domains of Grb2, Grb10, and Grb14 | no effect | 41.0 ± 3 | low responses, though slightly higher than seen for Grb2-SH2 WT; also recorded: minimal binding | detectable binding | 14.2 ± 0.9 | only a low binding response | minimal binding | no ability to be bound |  |  |  |  |  |  | 
(cyclo-(CH2CO-WFEGYDNTFPC-RRMKWKKK(Biotin))-amide) (sidechain bridge or staple) [G7-18NATE-PB] |  |  |  |  |  | Fluorescence was observed, although at much lower intensity |  |  |  |  | no observation of fluorescence | no observation of fluorescence | no observation of fluorescence |  |  |  | 
B1 |  |  |  |  |  |  |  |  |  |  |  |  |  | 7.97 | 2.43 | > 125 | 7.98
